Common to all, as to assay type: functional
Assay [1] relates to Enterobacter hormaechei. Description: Antibacterial activity against Enterobacter hormaechei isolate UCN62.
Assay [2] deals with Enterobacter hormaechei. Nature of the assay: Antibacterial activity against Enterobacter hormaechei isolate UCN63 after 3 weeks of treatment.
Assay [3] deals with Enterobacter cloacae. Description: Antibacterial activity against Enterobacter cloacae UCN63 by broth microdilution method after 3 weeks of treatment. The note with it: UCN63, 504 h. For orientation: In broth dilution the organism is exposed to a series of concentrations in liquid medium.
For assay [4], the system named is Enterobacter cloacae. Nature of the assay: Antibacterial activity against Enterobacter cloacae UCN63 by Etest after 3 weeks of treatment. As to conditions: UCN63, 504 h.
The subject of assay [5] is Enterobacter cloacae. Description: Antibacterial activity against Enterobacter cloacae UCN62 by broth microdilution method.
Assay [6] has as its system Enterobacter cloacae. Nature of the assay: Antibacterial activity against Enterobacter cloacae UCN62 by Etest.

Results on six molecules are retold here after ChEMBL document CHEMBL1649266, “Emergence of an Enterobacter hormaechei strain with reduced susceptibility to tigecycline under tigecycline therapy” (2009).

Converted amounts (≈) assume the structure as drawn.

The MIC is the least concentration at which growth counts as inhibited. Regarding `C[C@@H](O)[C@H]1C(=O)N2C(C(=O)O)=C(SCCNC=N)C[C@H]12` [IMIPENEM ANHYDROUS], the MIC in assay [1] came out at 1 µg/mL (≈ 3.34 µM); in assay [2] (isolate UCN63, 504 h), 1 µg/mL (≈ 3.34 µM).

In the case of `CN(C)c1cc(NC(=O)CNC(C)(C)C)c(O)c2c1C[C@H]1C[C@H]3[C@H](N(C)C)C(O)=C(C(N)=O)C(=O)[C@@]3(O)C(O)=C1C2=O` [TIGECYCLINE], the MIC in assay [1] is 2 µg/mL (≈ 3.41 µM); in assay [3], 4 µg/mL (≈ 6.83 µM); in assay [4], 3 µg/mL (≈ 5.12 µM); in assay [5], 2 µg/mL (≈ 3.41 µM); in assay [6] it was 1 µg/mL (≈ 1.71 µM); in assay [2] (isolate UCN63, 504 h), 4 µg/mL (≈ 6.83 µM).

In the case of `O=C(O)c1cn(C2CC2)c2cc(N3CCNCC3)c(F)cc2c1=O` [CIPROFLOXACIN], the MIC was over 16 µg/mL in assay [1] and over 16 µg/mL in assay [2] (isolate UCN63, 504 h).

`CO/N=C(\C(=O)N[C@@H]1C(=O)N2C(C(=O)O)=C(COC(C)=O)CS[C@H]12)c1csc(N)n1` [CEFOTAXIME]: the MIC in assay [1] is over 64 µg/mL; in assay [2] (isolate UCN63, 504 h), over 64 µg/mL.

With `NCC[C@H](O)C(=O)N[C@@H]1C[C@H](N)[C@@H](O[C@H]2O[C@H](CN)[C@@H](O)[C@H](O)[C@H]2O)[C@H](O)[C@H]1O[C@H]1O[C@H](CO)[C@@H](O)[C@H](N)[C@H]1O` [AMIKACIN], the minimum inhibitory concentration (MIC) in assay [1] worked out at 4 µg/mL (≈ 6.83 µM); in assay [2] (isolate UCN63, 504 h), 8 µg/mL (≈ 13.7 µM).

Turning to GENTAMICIN, the MIC in assay [1] and in assay [2] was over 32 µg/mL each time.
